Experiments:
Assay type in all cases: in vivo
[1] = system: Heliothis virescens; assay: Heliothis virescens, eggs on treated artificial diet; details: 96 h, 200 ppm (concentration in well 18 ppm), 4 days incubation
Procedure: Heliothis virescens (Tobacco Budworm): Eggs (0-24 h old) were placed in 24-well microtiter plate on artificial diet and treated with test solutions at an application rate of 200 ppm (concentration in well 18 ppm) by pipetting. After an incubation period of 4 days, samples were checked for egg mortality, larval mortality, and growth regulation.

[2] = system: Spodoptera littoralis; assay: Spodoptera littoralis (systemic), salad grown on treated agar, eggs; details: 120 h, application rate 12.5 ppm, checked 5 days after infestation (mortality, repellent effect, feeding behavior, growth regulation)
Text: Spodoptera littoralis (Systemic) (Egyptian Cotton Leaf Worm) Test compounds were applied by pipette into 24 well plates and mixed with agar. Salad seeds were placed on the agar and the multi well plate is closed by another plate which contains also agar. After 7 days the roots have absorbed the compound and the salad has grown into the lid plate. The salad leafs were now cut off into the lid plate. Spodoptera eggs were pipette through a plastic stencil on a humid gel blotting paper and the plate closed with it. The samples are checked for mortality, repellent effect, feeding behavior, and growth regulation 5 days after infestation. Application rate: 12.5 ppm

[3] = system: Spodoptera littoralis; assay: Spodoptera littoralis, sprayed cotton leaf discs, L1 larvae; details: foliar, 72 h, cotton leaf discs sprayed at 200 ppm, 3 days after treatment
Text: Spodoptera littoralis (Egyptian Cotton Leafworm): Cotton leaf discs were placed on agar in a 24-well microtiter plate and sprayed with test solutions at an application rate of 200 ppm. After drying, the leaf discs were infested with 5 L1 larvae. The samples were checked for mortality, feeding behavior, and growth regulation 3 days after treatment (DAT).

[4] = system: Plutella xylostella; assay: Plutella xylostella, L2 larvae on treated artificial diet; details: 144 h, 200 ppm (concentration in well 18 ppm), 6 days incubation
Procedure: Plutella xylostella (Diamond Back Moth): 24-well microtiter plate (MTP) with artificial diet was treated with test solutions at an application rate of 200 ppm (concentration in well 18 ppm) by pipetting. After drying, the MTPs were infested with L2 larvae (7-12 per well). After an incubation period of 6 days, samples were checked for larval mortality and growth regulation.

[5] = system: Diabrotica balteata; assay: Diabrotica balteata, L2 larvae on treated artificial diet; details: 120 h, 200 ppm (concentration in well 18 ppm), 5 days incubation
Procedure: Diabrotica balteata (Corn Root Worm): A 24-well microtiter plate (MTP) with artificial diet was treated with test solutions at an application rate of 200 ppm (concentration in well 18 ppm) by pipetting. After drying, the MTPs were infested with L2 larvae (6-10 per well). After an incubation period of 5 days, samples were checked for larval mortality and growth regulation.

[6] = system: Thrips tabaci; assay: Thrips tabaci, sprayed sunflower leaf discs; details: foliar, 168 h, sunflower leaf discs sprayed at 200 ppm, mixed ages, mortality after 7 days
Procedure: Thrips tabaci (Onion Thrips): Sunflower leaf discs were placed on agar in a 24-well microtiter plate and sprayed with test solutions at an application rate of 200 ppm. After drying, the leaf discs were infested with an […] population of mixed ages. After an incubation period of 7 days, samples were checked for mortality.

[7] = system: Tetranychus urticae; assay: Tetranychus urticae, sprayed bean leaf discs; details: foliar, 192 h, bean leaf discs sprayed at 200 ppm, mixed ages, checked 8 days later
Text: Tetranychus urticae (Two-Spotted Spider Mite): Bean leaf discs on agar in 24-well microtiter plates were sprayed with test solutions at an application rate of 200 ppm. After drying, the leaf discs are infested with mite populations of mixed ages. 8 days later, discs are checked for egg mortality, larval mortality, and adult mortality.

[8] = system: Myzus persicae; assay: Myzus persicae (sachet), mixed population, sucrose solution; details: 120 h, application rate 12.5 ppm, mortality 5 days after infestation
Text: Myzus persicae (Sachet) (Green Peach Aphid) Mixed Population Test compounds were applied by pipette into 24 well plates and mixed with Sucrose solution. The plates were closed with a stretched Parafilm. A plastic stencil with 24 holes is placed onto the plate and infested pea seedlings were placed directly on the Parafilm. The infested plate is closed with a gel blotting paper and another plastic stencil and then turned upside down. 5 days after infestation the samples were checked on mortality. Application rate: 12.5 ppm.

Cc1cc(C2=COC(c3cc(Cl)cc(Cl)c3)(C(F)(F)F)C2)ccc1C(=O)NCC(F)(F)F (stereo not shown) [Compound D1]
≥ 80%: pest or weed control at 200 ppm [1] | pest or weed control at 12.5 ppm [2] | pest or weed control at 200 ppm [3] | pest or weed control at 200 ppm [4] | pest or weed control at 200 ppm [5] | pest or weed control at 200 ppm [6]

Cc1cc(C2=COC(c3cc(Cl)cc(Cl)c3)(C(F)(F)F)C2)ccc1C(=O)NC1C[S+]([O-])C1 (stereo not shown) [Compound D20]
≥ 80%: pest or weed control at 200 ppm [1] | pest or weed control at 12.5 ppm [2] | pest or weed control at 200 ppm [3] | pest or weed control at 200 ppm [4] | pest or weed control at 200 ppm [5] | pest or weed control at 200 ppm [7] | pest or weed control at 12.5 ppm [8] | pest or weed control at 200 ppm [6]

Cc1cc(C2=COC(c3cc(Cl)cc(Cl)c3)(C(F)(F)F)C2)ccc1C(=O)NCc1ccccn1 (stereo not shown) [Compound D15]
≥ 80%: pest or weed control at 200 ppm [1] | pest or weed control at 12.5 ppm [2] | pest or weed control at 200 ppm [3] | pest or weed control at 200 ppm [4] | pest or weed control at 200 ppm [5] | pest or weed control at 200 ppm [7] | pest or weed control at 12.5 ppm [8] | pest or weed control at 200 ppm [6]

Cc1cc(C2=COC(c3cc(Cl)cc(Cl)c3)(C(F)(F)F)C2)ccc1C(=O)NC1CSC1 (stereo not shown) [Compound D21]
≥ 80%: pest or weed control at 200 ppm [1] | pest or weed control at 12.5 ppm [2] | pest or weed control at 200 ppm [3] | pest or weed control at 200 ppm [4] | pest or weed control at 200 ppm [5] | pest or weed control at 200 ppm [7] | pest or weed control at 12.5 ppm [8] | pest or weed control at 200 ppm [6]

Cc1cc(C2=COC(c3cc(Cl)cc(Cl)c3)(C(F)(F)F)C2)ccc1C(=O)NC1CS(=O)(=O)C1 (stereo not shown) [Compound D24, 4-[5-(3,5-Dichloro-phenyl)-5-trifluoromethyl-4,5-dihydro-furan-3-yl]-N-(1,1-dioxo-1lambda*6*-thietan-3-yl)-2-methyl-benzamide]
≥ 80%: pest or weed control at 200 ppm [1] | pest or weed control at 12.5 ppm [2] | pest or weed control at 200 ppm [3] | pest or weed control at 200 ppm [4] | pest or weed control at 200 ppm [5] | pest or weed control at 200 ppm [7] | pest or weed control at 12.5 ppm [8] | pest or weed control at 200 ppm [6]

Cc1cc(C2=COC(c3cc(Cl)cc(Cl)c3)(C(F)(F)F)C2)ccc1C(=O)NCC1CCCO1 (stereo not shown) [Compound D8]
≥ 80%: pest or weed control at 200 ppm [1] | pest or weed control at 12.5 ppm [2] | pest or weed control at 200 ppm [3] | pest or weed control at 200 ppm [4] | pest or weed control at 200 ppm [5] | pest or weed control at 200 ppm [7] | pest or weed control at 12.5 ppm [8] | pest or weed control at 200 ppm [6]

From patent US9714228B2, “Dihydrofuran derivatives as insecticidal compounds” (Syngenta Participations AG, priority 2010, dated 2017)
